Molecules are shown by their SMILES.

These results are taken from patent publication US20230218577A1, “USE OF HEAT SHOCK PROTEIN INHIBITORS FOR THE TREATMENT OF NEURODEVELOPMENTAL DISORDERS” (The Children's Medical Center Corporation, priority 2020, published 2023).

The experiment concerns ciliated neurons in cortex and dentate gyrus of Tsc1 mutant mice. Briefly: Ciliated neurons in brain of Tsc1 mutant mice (immunohistochemistry, manual cilia counting). It counts as in vivo, mouse. To be noted: rapamycin 6 mg/kg i.p. every other day P7 until P21. An excerpt:
Neuronal cilia in TSC mouse models was examined with either a conditional deletion of TSC1 or TSC2 driven by the Synapsin-1 promoter, which results in loss of TSC1/2 proteins in post-mitotic neurons of the cortex and of the hippocampus. The TSC1/SynCre mice (Tsc1 mutant) have a shorter life span (median age postnatal day 35, P35), and they recapitulate many of the neurological manifestations of TSC, including seizures and presence of ectopic giant cells (Meikle et al., A mouse model of tuberous sclerosis: neuronal loss of Tsc1 causes dysplastic and ectopic neurons, reduced myelination, seizure activity, and limited survival; J Neurosci 27, 5546-5558 (2007)). […]
For histological analysis, animals were anesthetized (1 ml of 2.5% Avertin) and perfused transcardially with 4% PFA. […] Finally, the average percentage of neurons with cilia (NeuN^+/ACIII^+) was calculated in each of the images. […] The average percentage of SMI311^+ or SMI311^− with cilia was calculated. […] A threshold for cilia count was set such that only ACIII positive objects that measured longer than 1 μm were counted as cilia. All the imaging and the quantification were done in a blinded way. […]

Consider `CO[C@H]1C[C@@H]2CC[C@@H](C)[C@@](O)(O2)C(=O)C(=O)N2CCCC[C@H]2C(=O)O[C@H]([C@H](C)C[C@@H]2CC[C@@H](O)[C@H](OC)C2)CC(=O)[C@H](C)/C=C(\C)[C@@H](O)[C@@H](OC)C(=O)[C@H](C)C[C@H](C)/C=C/C=C/C=C/1C` [rapamycin], for which the ciliation defects result is “prevented”.
